Assay results reported in patent US12440484B2, “1,3,4-oxadiazole homophthalimide derivative compounds as histone deacetylase 6 inhibitor, and the pharmaceutical composition comprising the same” (Chong Kun Dang Pharmaceutical Corp., priority 2019, dated 2025).

Legend:
HDAC6 human recombinant = HDAC6 human recombinant (Homo sapiens (Human), UniProt Q9UBN7); experiment: HDAC enzyme activity inhibition (in vitro), HDAC6 assay; assay type: biochemical; details: samples at 0.1, 1, 10, 100 and 1000 nM; 37° C. 60 minutes; fluorescence Ex 390, Em 460
HDAC1 = HDAC1 (Homo sapiens (Human), UniProt Q13547); experiment: HDAC enzyme activity inhibition (in vitro), HDAC1 Fluorimetric Drug Discovery Assay Kit; assay type: biochemical; details: samples at 100, 1000 and 10000 nM; 37° C. 60 minutes; fluorescence Ex 390, Em 460
Sequence of HDAC1 (Q13547 whole entry): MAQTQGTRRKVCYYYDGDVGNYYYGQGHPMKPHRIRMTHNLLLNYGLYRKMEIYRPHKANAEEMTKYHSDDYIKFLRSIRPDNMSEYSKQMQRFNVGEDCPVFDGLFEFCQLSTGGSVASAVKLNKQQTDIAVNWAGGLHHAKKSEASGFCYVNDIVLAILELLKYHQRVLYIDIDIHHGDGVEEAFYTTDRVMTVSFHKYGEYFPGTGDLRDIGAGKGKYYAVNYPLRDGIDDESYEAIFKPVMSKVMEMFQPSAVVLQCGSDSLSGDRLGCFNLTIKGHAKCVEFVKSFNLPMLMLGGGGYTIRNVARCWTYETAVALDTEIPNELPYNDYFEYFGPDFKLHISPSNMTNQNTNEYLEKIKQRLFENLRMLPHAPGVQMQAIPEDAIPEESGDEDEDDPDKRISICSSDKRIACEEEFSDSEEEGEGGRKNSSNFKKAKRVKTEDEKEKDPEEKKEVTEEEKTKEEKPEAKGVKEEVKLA

Sequence of HDAC6 human recombinant (Q9UBN7 whole entry): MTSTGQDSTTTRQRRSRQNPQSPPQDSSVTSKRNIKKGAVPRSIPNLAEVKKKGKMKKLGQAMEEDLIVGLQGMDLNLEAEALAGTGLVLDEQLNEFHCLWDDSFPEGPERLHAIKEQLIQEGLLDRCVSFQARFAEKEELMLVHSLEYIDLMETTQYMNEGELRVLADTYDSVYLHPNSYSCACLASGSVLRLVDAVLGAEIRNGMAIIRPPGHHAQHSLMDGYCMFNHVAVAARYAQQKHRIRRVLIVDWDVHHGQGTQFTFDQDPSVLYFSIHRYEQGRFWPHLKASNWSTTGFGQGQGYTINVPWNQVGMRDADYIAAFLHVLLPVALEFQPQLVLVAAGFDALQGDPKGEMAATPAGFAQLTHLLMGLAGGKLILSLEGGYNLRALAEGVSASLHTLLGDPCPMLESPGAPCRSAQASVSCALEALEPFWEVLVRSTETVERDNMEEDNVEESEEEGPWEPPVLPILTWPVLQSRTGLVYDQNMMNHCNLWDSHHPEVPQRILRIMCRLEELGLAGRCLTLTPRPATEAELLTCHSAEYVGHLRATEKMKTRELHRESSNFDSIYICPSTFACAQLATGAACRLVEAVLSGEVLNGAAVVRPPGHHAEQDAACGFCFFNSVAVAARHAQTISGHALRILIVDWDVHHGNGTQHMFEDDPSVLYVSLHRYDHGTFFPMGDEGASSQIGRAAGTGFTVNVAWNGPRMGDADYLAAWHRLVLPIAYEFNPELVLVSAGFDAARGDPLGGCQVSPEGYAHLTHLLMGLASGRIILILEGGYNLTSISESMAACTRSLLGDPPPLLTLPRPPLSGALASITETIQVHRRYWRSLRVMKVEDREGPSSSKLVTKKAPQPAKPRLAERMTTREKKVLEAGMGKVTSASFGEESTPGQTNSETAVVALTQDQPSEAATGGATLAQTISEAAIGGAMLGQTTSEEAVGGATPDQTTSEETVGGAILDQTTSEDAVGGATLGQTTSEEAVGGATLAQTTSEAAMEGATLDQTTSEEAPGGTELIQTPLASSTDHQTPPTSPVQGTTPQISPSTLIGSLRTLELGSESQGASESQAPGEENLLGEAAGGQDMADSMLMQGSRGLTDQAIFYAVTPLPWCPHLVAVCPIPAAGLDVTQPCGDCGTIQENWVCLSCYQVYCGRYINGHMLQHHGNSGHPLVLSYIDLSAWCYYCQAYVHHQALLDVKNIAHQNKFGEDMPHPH

Row | SMILES | IC50 (HDAC6 human recombinant) [nM] | IC50 (HDAC1) [nM]
1 | CC1(C)C(=O)N(Cc2ccc(-c3nnc(C(F)F)o3)cn2)C(=O)c2cc(C3=CC[S+]([O-])CC3)ccc21 (stereo not drawn) [Compound 123, 2-((5-(5-(difluoromethyl)-1,3,4-oxadiazole-2-yl)pyridine-2-yl)methyl)-4,4-dimethyl-7-(1-oxydo-3,6-dihydro-2H-thiopyran-4-yl)isoquinoline-1,3(2H,4H)-dione] | 17 | > 10000
2 | CC(C)N1CC=C(c2ccc3c(=O)n(Cc4ccc(-c5nnc(C(F)F)o5)cn4)c(=O)n(C)c3c2)CC1 [Compound 124, 3-((5-(5-(difluoromethyl)-1,3,4-oxadiazole-2-yl)pyridine-2-yl)methyl)-7-(1-isopropyl-1,2,3,6-tetrahydropyridine-4-yl)-1-methylquinazoline-2,4(1H,3H)-dione] | 38 | > 10000
3 | CC1(C)C(=O)N(Cc2ccc(-c3nnc(C(F)F)o3)cn2)C(=O)c2cc(C3=CCS(=O)(=NC(=O)C(F)(F)F)CC3)ccc21 (stereo not drawn) [Compound 125, N-(4-(2-((5-(5-(difluoromethyl)-1,3,4-oxadiazole-2-yl)pyridine-2-yl)methyl)-4,4-dimethyl-1,3-dioxo-1,2,3,4-tetrahydroisoquinoline-7-yl)-1-oxydo-3,6-dihydro-2H-1λ^6-thiopyran-1-ylidene)-2,2,2-trifluoroacetamide] | 43 | > 10000
4 | CC1(C)C(=O)N(Cc2ccc(-c3nnc(C(F)F)o3)cn2)C(=O)c2cc(C3=CCS(=N)(=O)CC3)ccc21 (stereo not drawn) [Compound 126, 2-((5-(5-(difluoromethyl)-1,3,4-oxadiazole-2-yl)pyridine-2-yl)methyl)-7-(1-imino-1-oxydo-1,2,3,6-tetrahydro-1λ^6-thiopyran-4-yl)-4,4-dimethylisoquinoline-1,3(2H,4H)-dione] | 32 | > 10000
5 | CC(=O)N1CCC(c2ccc3c(c2)C(=O)N(Cc2ccc(-c4nnc(C(F)F)o4)cn2)C(=O)C3(C)C)CC1 [Compound 127, 7-(1-acetylpiperidine-4-yl)-2-((5-(5-(difluoromethyl)-1,3,4-oxadiazole-2-yl)pyridine-2-yl)methyl)-4,4-dimethylisoquinoline-1,3(2H,4H)-dione] | 17 | > 10000
6 | CC1(C)C(=O)N(Cc2ccc(-c3nnc(C(F)F)o3)cn2)C(=O)c2cc(C3CCN(S(C)(=O)=O)CC3)ccc21 [Compound 128, 2-((5-(5-(difluoromethyl)-1,3,4-oxadiazole-2-yl)pyridine-2-yl)methyl)-4,4-dimethyl-7-(1-(methylsulfonyl)piperidine-4-yl)isoquinoline-1,3(2H,4H)-dione] | 70 | > 10000
7 | CCN1CCN(c2ccc3c(c2)C(=O)N(Cc2ccc(-c4nnc(C(F)F)o4)cn2)C(=O)C3(C)C)CC1 [Compound 129, 2-((5-(5-(difluoromethyl)-1,3,4-oxadiazole-2-yl)pyridine-2-yl)methyl)-7-(4-ethylpiperazine-1-yl)-4,4-dimethylisoquinoline-1,3(2H,4H)-dione] | 26 | > 10000
8 | CCCN1CCN(c2ccc3c(c2)C(=O)N(Cc2ccc(-c4nnc(C(F)F)o4)cn2)C(=O)C3(C)C)CC1 [Compound 130, 2-((5-(5-(difluoromethyl)-1,3,4-oxadiazole-2-yl)pyridine-2-yl)methyl)-4,4-dimethyl-7-(4-propylpiperazine-1-yl) isoquinoline-1,3(2H,4H)-dione] | 30 | > 10000
9 | CC(C)CN1CCN(c2ccc3c(c2)C(=O)N(Cc2ccc(-c4nnc(C(F)F)o4)cn2)C(=O)C3(C)C)CC1 [Compound 131, 2-((5-(5-(difluoromethyl)-1,3,4-oxadiazole-2-yl)pyridine-2-yl)methyl)-7-(4-isobutylpiperazine-1-yl)-4,4-dimethylisoquinoline-1,3(2H,4H)-dione] | 62 | > 10000
10 | CC(C)CCN1CCN(c2ccc3c(c2)C(=O)N(Cc2ccc(-c4nnc(C(F)F)o4)cn2)C(=O)C3(C)C)CC1 [Compound 132, 2-((5-(5-(difluoromethyl)-1,3,4-oxadiazole-2-yl)pyridine-2-yl)methyl)-7-(4-isopentylpiperazine-1-yl)-4,4-dimethylisoquinoline-1,3(2H,4H)-dione] | 69 | > 10000
11 | CC1(C)C(=O)N(Cc2ccc(-c3nnc(C(F)F)o3)cn2)C(=O)c2cc(N3CCN(CC(F)(F)F)CC3)ccc21 [Compound 133, 2-((5-(5-(difluoromethyl)-1,3,4-oxadiazole-2-yl)pyridine-2-yl)methyl)-4,4-dimethyl-7-(4-(2,2,2-trifluoroethyl)piperazine-1-yl)isoquinoline-1,3(2H,4H)-dione] | 76 | > 10000
12 | CC1(C)C(=O)N(Cc2ccc(-c3nnc(C(F)F)o3)cn2)C(=O)c2cc(C3CCN(C(=O)CO)CC3)ccc21 [Compound 134, 2-((5-(5-(difluoromethyl)-1,3,4-oxadiazole-2-yl)pyridine-2-yl)methyl)-7-(1-(2-hydroxyacetyl)piperidine-4-yl)-4,4-dimethylisoquinoline-1,3(2H,4H)-dione] | 12 | > 10000
13 | CC1(C)C(=O)N(Cc2ccc(-c3nnc(C(F)F)o3)cn2)C(=O)c2cc(C3CCN(CC(F)(F)F)CC3)ccc21 [Compound 135, 2-((5-(5-(difluoromethyl)-1,3,4-oxadiazole-2-yl)pyridine-2-yl)methyl)-4,4-dimethyl-7-(1-(2,2,2-trifluoroethyl)piperidine-4-yl)isoquinoline-1,3(2H,4H)-dione] | 100 | > 10000
14 | CCC1(CC)C(=O)N(Cc2ccc(-c3nnc(C(F)F)o3)cn2)C(=O)c2ccc(N3CCN(C(C)=O)CC3)cc21 [Compound 136, 6-(4-acetylpiperazine-1-yl)-2-((5-(5-(difluoromethyl)-1,3,4-oxadiazole-2-yl)pyridine-2-yl)methyl)-4,4-diethylisoquinoline-1,3(2H,4H)-dione] | 55 | > 10000
15 | CC1(C)C(=O)N(Cc2ccc(-c3nnc(C(F)F)o3)cn2)C(=O)c2ccc(N3CCN(CC(F)(F)C(F)F)CC3)cc21 [Compound 137, 2-((5-(5-(difluoromethyl)-1,3,4-oxadiazole-2-yl)pyridine-2-yl)methyl)-4,4-dimethyl-6-(4-(2,2,3,3-tetrafluoropropyl)piperazine-1-yl)isoquinoline-1,3(2H,4H)-dione] | 89 | > 10000
16 | CC(F)(F)CN1CCN(c2ccc3c(c2)C(C)(C)C(=O)N(Cc2ccc(-c4nnc(C(F)F)o4)cn2)C3=O)CC1 [Compound 138, 2-((5-(5-(difluoromethyl)-1,3,4-oxadiazole-2-yl)pyridine-2-yl)methyl)-6-(4-(2,2-difluoropropyl)piperazine-1-yl)-4,4-dimethylisoquinoline-1,3(2H,4H)-dione] | 96 | > 10000
17 | CCC(F)(F)CN1CCN(c2ccc3c(c2)C(C)(C)C(=O)N(Cc2ccc(-c4nnc(C(F)F)o4)cn2)C3=O)CC1 [Compound 139, 6-(4-(2,2-difluorobutyl)piperazine-1-yl)-2-((5-(5-(difluoromethyl)-1,3,4-oxadiazole-2-yl)pyridine-2-yl)methyl)-4,4-dimethylisoquinoline-1,3(2H,4H)-dione] | 683 | > 10000
18 | CC1(C)C(=O)N(Cc2ccc(-c3nnc(C(F)F)o3)cn2)C(=O)c2ccc(N3CCN(CC(F)(F)C(F)(F)C(F)(F)F)CC3)cc21 [Compound 140, 2-((5-(5-(difluoromethyl)-1,3,4-oxadiazole-2-yl)pyridine-2-yl)methyl)-6-(4-(2,2,3,3,4,4,4-heptafluorobutyl)piperazine-1-yl)-4,4-dimethylisoquinoline-1,3(2H,4H)-dione] | 535 | > 10000
19 | CCN1CCN(c2ccc3c(c2)C(CC)(CC)C(=O)N(Cc2ccc(-c4nnc(C(F)F)o4)cn2)C3=O)CC1 [Compound 142, 2-((5-(5-(difluoromethyl)-1,3,4-oxadiazole-2-yl)pyridine-2-yl)methyl)-4,4-diethyl-6-(4-ethylpiperazine-1-yl)isoquinoline-1,3(2H,4H)-dione] | 81 | > 10000
20 | CCCN1CCC(c2ccc3c(c2)C(=O)N(Cc2ccc(-c4nnc(C(F)F)o4)cn2)C(=O)C3(C)C)CC1 [Compound 143, 2-((5-(5-(difluoromethyl)-1,3,4-oxadiazole-2-yl)pyridine-2-yl)methyl)-4,4-dimethyl-7-(1-propylpiperidine-4-yl) isoquinoline-1,3 (2H,4H)-dione] | 21 | > 10000
21 | CC(C)CN1CCC(c2ccc3c(c2)C(=O)N(Cc2ccc(-c4nnc(C(F)F)o4)cn2)C(=O)C3(C)C)CC1 [Compound 144, 2-((5-(5-(difluoromethyl)-1,3,4-oxadiazole-2-yl)pyridine-2-yl)methyl)-7-(1-isobutylpiperidine-4-yl)-4,4-dimethylisoquinoline-1,3(2H,4H)-dione] | 34 | > 10000
22 | CC1(C)C(=O)N(Cc2ccc(-c3nnc(C(F)F)o3)cn2)C(=O)c2cc(C3CCN(C4CCC4)CC3)ccc21 [Compound 145, 7-(1-cyclobutylpiperidine-4-yl)-2-((5-(5-(difluoromethyl)-1,3,4-oxadiazole-2-yl)pyridine-2-yl)methyl)-4,4-dimethylisoquinoline-1,3(2H,4H)-dione] | 37 | > 10000
23 | CC1(C)C(=O)N(Cc2ccc(-c3nnc(C(F)F)o3)cn2)C(=O)c2cc(C3CCN(C4CCOC4)CC3)ccc21 (stereo not drawn) [Compound 146, 2-((5-(5-(difluoromethyl)-1,3,4-oxadiazole-2-yl)pyridine-2-yl)methyl)-4,4-dimethyl-7-(1-(tetrahydrofuran-3-yl)piperidine-4-yl)isoquinoline-1,3(2H,4H)-dione] | 58 | > 10000
24 | CCCCN1CCN(c2ccc3c(c2)C(C)(C)C(=O)N(Cc2ccc(-c4nnc(C(F)F)o4)cn2)C3=O)CC1 [Compound 147, 6-(4-butylpiperazine-1-yl)-2-((5-(5-(difluoromethyl)-1,3,4-oxadiazole-2-yl)pyridine-2-yl)methyl)-4,4-dimethylisoquinoline-1,3(2H,4H)-dione] | 69 | > 10000
